Reference: patent publication US20260174757A1, “COMPOSITIONS AND METHODS FOR TREATING PULMONARY ARTERIAL HYPERTENSION” (Inhibikase Therapeutics, Inc., priority 2024, published 2026)
Structures can show the parent of a compound that is named as a salt. Where two headings read alike, the source gives them in different places.

Key:
[1] = imatinib mesylate in NHP, Q.D.; from NDA 21-335; cited from earlier work
[2] = steady state, Day 91, NOAEL 15 mg/kg, from NDA 21-335, cited from earlier work
[3] = Comparative toxicology in non-human primate (NOAEL); details: cynomolgus macaque, in vivo; 28-day GLP toxicology study in cynomolgus macaques; read-out: No Adverse Effect Level (NOAEL)
Description: The compound of formula (I) was originally developed to address on-dosing side effects of imatinib therapy. In particular, up to 50% of imatinib patients experience persistent Grade 2 or less gastrointestinal (GI) adverse events during treatment for blood or stomach cancers, and during the previous imatinib trials, up to ⅓ of participants experienced these GI events including 3% of participants experiencing SAEs due to GI disturbance. The compound of formula (I) was developed specifically to reduce these events with the expectations that improvement in other off-target or unintended side effects of this therapy could follow. To illustrate the potential of the compound of formula (I) to minimize GI disturbance, the compound was evaluated in comparative toxicology experiments in non-human primate (NHP).

[4] = human, in vivo
Description: Additionally, the clinical pharmacokinetics for each cohort of healthy subjects studied for the compound of formula (I) using the designs were summarized.

Cc1ccc(NC(=O)c2ccc(CN3CCN(C)CC3)cc2)cc1Nc1nccc(-c2cccnc2)n1 [Imatinib mesylate, imatinib mesylate]
No Adverse Effect Level (NOAEL) [1]: 15 mg/kg
AUC0-last (mean) ([2]; female): 1960 ng·h/mL
AUC0-last (mean) ([2]; male): 1540 ng·h/mL

CCC(C)OC(=O)OC[N+]1(C)CCN(Cc2ccc(C(=O)Nc3ccc(C)c(Nc4nccc(-c5cccnc5)n4)c3)cc2)CC1 (stereo not shown) [IkT-001Pro]
NOAEL at 28 day [3]: 75 mg/kg
dose dependence of single dose Cmax and AUC0-inf [4]: increased linearly with dose
AUC0-last ([4]; 300 mg): 17820 ng·h/mL
CL/F ([4]; 300 mg): 14.03 L/h
Cmax ([4]; 300 mg): 926.1 ng/mL
Tmax ([4]; 300 mg): 5.33 h
Vz/F ([4]; 300 mg): 331.4 L
AUC0-last ([4]; 400 mg): 30100 ng·h/mL
CL/F ([4]; 400 mg): 10.82 L/h
Cmax ([4]; 400 mg): 1563 ng/mL
Tmax ([4]; 400 mg): 5.75 h
Vz/F ([4]; 400 mg): 247.5 L
AUC0-last ([4]; 500 mg): 38440 ng·h/mL
CL/F ([4]; 500 mg): 11.29 L/h
Cmax ([4]; 500 mg): 1836 ng/mL
Tmax ([4]; 500 mg): 5.75 h
Vz/F ([4]; 500 mg): 303.8 L
AUC0-inf LSM (plasma imatinib) ([4]; 600 mg): 41202.597
AUC0-last LSM (plasma imatinib) ([4]; 600 mg): 40456.384
Cmax LSM (plasma imatinib) ([4]; 600 mg): 1939.51
AUC0-inf LSM ([4]; 800 mg): 50840.298
AUC0-last ([4]; 800 mg): 51430 ng·h/mL
AUC0-last LSM ([4]; 800 mg): 50220.802
CL/F ([4]; 800 mg): 12.8 L/h
Cmax ([4]; 800 mg): 2467 ng/mL
Cmax LSM ([4]; 800 mg): 2409.131
Tmax ([4]; 800 mg): 5.5 h
Vz/F ([4]; 800 mg): 272 L
